Results on two molecules are retold here after patent US8129409B2, “Piperidine derivatives and cosmetic compositions thereof” (L'Oreal, priority 2004, dated 2012).

Test [1] has as its system human striated muscle cells innervated with explants of rat embryonic rachidian ganglia and spinal cord. Kind of test: nerve/muscle coculture model, muscle fibre contractions. Format: cell-based. As to the method: The compound of Example 1 was tested on a model of nerve/muscle coculture, which makes it possible to recreate a motor arc by innervating human striated muscle cells with explants of rat embryonic rachidian ganglia and spinal cord.
Human muscle cells, obtained from samples of striated muscle from healthy donors, are inoculated into wells of cross section 1.8 cm^2 (24-well culture dishes). After culturing for ten days, these cells form a monolayer and fuse. At this stage, explants of embryonic spinal cord from a 13 day-old rat, containing the rachidian ganglia, are placed on the culture.
The growth of the neurites is visible beyond the spinal cord explant after one day of culture. The first contractions of the muscle fibres are observed after five to six days of coculture, and after three weeks all the muscle fibres in the region of the explants contract.
The cocultures are used after 21 days, when the muscle fibres are striated and contain mature differentiated neuromuscular junctions.
A muscle fibre showing regular contractions (at least 60 contractions per minute) is then selected from three different culture wells and the number of contractions is counted over 30 seconds. The test compound, diluted in DMSO, is then incubated for 60 seconds in these wells, at a concentration of 10^−5 M. At the end of incubation, the number of contractions is again counted over 30 seconds. […]

Test [2] can be described thus: anti-wrinkle activity in vivo. Conditions: no details given.

SMILES strings stand for the structures.

In the case of `CN1C(=O)CN=C(c2ccccc2)c2cc(Cl)ccc21` [diazepam], in test [1] (as demonstrated by the Applicant, no concentration given), the “effect on muscle fibre contractions in the nerve/muscle coculture model” value was “inhibited muscle fibre contractions”. Also, the “anti-wrinkle activity in vivo” value in test [2] is “demonstrated in vivo”. With `c1ccc(CCCC2CCN(CCCc3ccccc3)CC2)cc1` [Example 1, 1,4-bis(3-phenylpropyl)piperidine], the “contractions of the fibre as % of its contractions before addition of the compound” value in test [1] (10^−5 M, diluted in DMSO, 60 seconds incubation (one minute after adding), contractions counted over 30 seconds, triplicate) is reported as 55%.
